The assay has as its target T1, human GPR119 receptor (Homo sapiens, UniProt Q8TDV5).
T1 construct: host or cells: GeneBLAzer T-Rex GPR 119 CHO-K1 DA cells (CHO-K1)
T1 sequence (Q8TDV5 1-335): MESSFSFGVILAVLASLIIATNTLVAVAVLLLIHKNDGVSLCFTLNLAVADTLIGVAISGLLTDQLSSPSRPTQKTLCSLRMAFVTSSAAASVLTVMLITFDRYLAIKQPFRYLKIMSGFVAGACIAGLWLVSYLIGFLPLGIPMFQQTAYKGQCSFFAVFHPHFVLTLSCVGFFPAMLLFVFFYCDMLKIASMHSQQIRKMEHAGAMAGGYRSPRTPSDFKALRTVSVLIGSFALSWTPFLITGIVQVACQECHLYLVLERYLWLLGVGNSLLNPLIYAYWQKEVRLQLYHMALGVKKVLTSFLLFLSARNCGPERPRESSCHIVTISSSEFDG
Kind of assay: Activity test for human GPR119 receptor (GeneBLAzer T-Rex GPR 119 CHO-K1 DA cells). Format: cell-based. To be noted: for EC50: human GPR119 receptor expressing CHO-K1 cells, 5 hours treatment, read-out: hGPR119 EC50; for activity for human GPR119 receptor (in words): judgement on the EC50 values of Table 11. The protocol:
1. Human GPR119 Receptor Cell
As a human GPR119 receptor expression cell for this test, the cell line “GeneBLAzer™ T-Rex GPR 119 CHO-K1 DA cells” that is commercially available from Invitrogen, was used. The cell was incubated in the DMEM media containing 1% dialyzed fetal bovine serum etc. The cell incubator was kept at constant temperature and constant humidity of 37° C., 5% CO2.
2. Activity Test for Human GPR119 Receptor
The human GPR119 receptor expressing cell was used to this test. Each of test compounds was added to be final concentrations of 0.1, 1, 10 μM in 96 well and tested in duplicate. A fixed amount of cell was added to each well of 96 well separately, and then treated with the test compound for 5 hours. After treatment of color development agent for 2 hours, the fluorescence value was determined with plate reader. To the luminous wavelength of control well, which was not treated with the sample, but in which only a vehicle […] was contained, the ratio of the luminous wavelength of test well, which was treated with the sample, was calculated, and then converted to obtain EC50 value.
3. Statistical Processing
All the results were expressed as mean±SD, and each test groups and the control group were compared using student's t-test to adjudge the effects of each test groups.

Usually EC50 stands for the concentration giving half of the maximal effect. Take `NC(=O)[C@@H]1C[C@@H](O)CN1C(=O)c1ccc(-c2cnc(OCC3CCN(CC4(C(F)(F)F)CCC4)CC3)cn2)cc1F` [Compound 1200, (2S,4R)-1-(2-fluoro-4-(5-((1-((1-(trifluoromethyl)cyclobutyl)methyl)piperidin-4-yl)methoxy)pyrazin-2-yl)benzoyl)-4-hydroxypyrrolidin-2-carboxamide]: the EC50 amounted to 0.8 nM and the “activity for human GPR119 receptor (in words)” value (“activity” for short) is given as “excellent activity”.

On to `CC(C)(F)CN1CCC(COc2cnc(-c3ccc(C(=O)N4CCC[C@@]4(C)C(N)=O)c(F)c3)nc2)CC1` [Compound 1206, (S)-1-(2-fluoro-4-(5-((1-(2-fluoro-2-methylpropyl)piperidin-4-yl)methoxy)pyrimidin-2-yl)benzoyl)-2-methylpyrrolidin-2-carboxamide], for which the EC50 came to 9 nM. Still for that read-out and setting: the same measure for `NC(=O)[C@@H]1C[C@H](F)CN1C(=O)c1ccc(-c2cnc(OCC3CCN(CC4(C(F)(F)F)CCC4)CC3)cn2)cc1` [Compound 1209, (2S,4S)-4-fluoro-1-(4-(5-((1-((1-(trifluoromethyl)cyclobutyl)methyl)piperidin-4-yl)methoxy)pyrazin-2-yl)benzoyl)pyrrolidin-2-carboxamide]: 0.09 nM.

As to `CCC(F)(CC)CN1CCC(COc2ccc(-c3ccc(C(=O)N4C[C@@H](F)C[C@H]4C(N)=O)cc3F)cc2)CC1` [Compound 1210, (2S,4S)-1-(4′-((1-(2-ethyl-2-fluorobutyl)piperidin-4-yl)methoxy)-2-fluorobiphenylcarbonyl)-4-fluoropyrrolidin-2-carboxamide], the EC50 worked out at 0.2 nM. On the same count and under the same terms, the value for `CCC(F)(CC)CN1CCC(COc2ccc(-c3ccc(C(=O)N4C[C@@H](F)C[C@H]4C(N)=O)c(F)c3)cc2)CC1` [Compound 1211, (2S,4S)-1-(4′-((1-(2-ethyl-2-fluorobutyl)piperidin-4-yl)methoxy)-3-fluorobiphenylcarbonyl)-4-fluoropyrrolidin-2-carboxamide] was 0.08 nM. Turning to `NC(=O)[C@@H]1[C@@H](O)CCN1C(=O)c1ccc(-c2ccc(OCC3CCN(CC4(C(F)(F)F)CCC4)CC3)cc2)c(F)c1` [Compound 1220, (2S,3S)-1-(2-fluoro-4′-((1-((1-(trifluoromethyl)cyclobutyl)methyl)piperidin-4-yl)methoxy)biphenylcarbonyl)-3-hydroxypyrrolidin-2-carboxamide], the EC50 was found to be 0.1 nM. Regarding `CCC(F)(F)CN1CCC(COc2ccc(-c3ccc(C(=O)N4CCC[C@H]4C(N)=O)c(F)c3)cn2)CC1` [Compound 1238, (S)-1-(4-(6-((1-(2,2-difluorobutyl)piperidin-4-yl)methoxy)pyridin-3-yl)-2-fluorobenzoyl)pyrrolidin-2-carboxamide], the EC50 is 0.9 nM.

As to `NC(=O)[C@@H]1CCCN1C(=O)c1ccc(-c2ccc(OCC3CCN(CC(F)(F)C(F)(F)F)CC3)cc2)cc1F` [Compound 1239, (S)-1-(3-fluoro-4′-((1-(2,2,3,3,3-pentafluoropropyl)piperidin-4-yl)methoxy)biphenylcarbonyl)pyrrolidin-2-carboxamide], the EC50 was 0.1 nM. On the same count and under the same terms, the value for `CCC(F)(CC)CN1CCC(COc2ccc(-c3ccc(C(=O)N4CC[C@H](O)[C@H]4C(N)=O)c(F)c3)cc2F)CC1` [Compound 1244, (2S,3S)-1-(4′-((1-(2-ethyl-2-fluorobutyl)piperidin-4-yl)methoxy)-3,3′-difluorobiphenylcarbonyl)-3-hydroxypyrrolidin-2-carboxamide] was 0.3 nM; that for `CCC(F)(CC)CN1CCC(COc2ccc(-c3ccc(C(=O)N4CC[C@H](O)[C@H]4C(N)=O)cc3)c(F)c2)CC1` [Compound 1245, (2S,3S)-1-(4′-((1-(2-ethyl-2-fluorobutyl)piperidin-4-yl)methoxy)-2′-fluorobiphenylcarbonyl)-3-hydroxypyrrolidin-2-carboxamide] was 1 nM.

With `NC(=O)[C@@H]1[C@@H](O)CCN1C(=O)c1ccc(-c2cnc(OCC3CCN(CC4(C(F)(F)F)CCC4)CC3)cn2)cc1F` [Compound 1249, (2S,3S)-1-(2-fluoro-4-(5-((1-((1-(trifluoromethyl)cyclobutyl)methyl)piperidin-4-yl)methoxy)pyrazin-2-yl)benzoyl)-3-hydroxypyrrolidin-2-carboxamide], the half-maximal effective concentration (EC50) turned out to be 0.1 nM and the “activity” value is on record as “excellent activity”. In the case of `NC(=O)[C@@H]1[C@@H](O)CCN1C(=O)c1ccc(-c2cnc(OCC3CCN(CC4(C(F)(F)F)CCC4)CC3)cn2)c(F)c1` [Compound 1253, (2S,3S)-1-(3-fluoro-4-(5-((1-((1-(trifluoromethyl)cyclobutyl)methyl)piperidin-4-yl)methoxy)pyrazin-2-yl)benzoyl)-3-hydroxypyrrolidin-2-carboxamide], the EC50 is 0.2 nM and the “activity” value is “excellent activity”. For `NC(=O)[C@@H]1C[C@@H](O)CN1C(=O)c1ccc(-c2ccc(OCC3CCN(CC4(C(F)(F)F)CCC4)CC3)cc2)c(F)c1` [Compound 1255] the same measures were 2 nM and “excellent activity”. With `NC(=O)[C@@H]1C[C@@H](O)CN1C(=O)c1ccc(-c2ccc(OCC3CCN(CC(F)(F)C(F)(F)F)CC3)cc2)cc1F` [Compound 1256, (2S,4R)-1-(3-fluoro-4′-((1-(2,2,3,3,3-pentafluoropropyl)piperidin-4-yl)methoxy)biphenylcarbonyl)-4-hydroxypyrrolidin-2-carboxamide], the EC50 came out at 0.4 nM. As to `CCC(F)(CC)CN1CCC(COc2cnc(-c3ccc(C(=O)N4C[C@H](O)C[C@H]4C(N)=O)c(F)c3)nc2)CC1` [Compound 1257, (2S,4R)-1-(4-(5-((1-(2-ethyl-2-fluorobutyl)piperidin-4-yl)methoxy)pyrimidin-2-yl)-2-fluorobenzoyl)-4-hydroxypyrrolidin-2-carboxamide], the EC50 came out at 10 nM.

On to `C[C@@]1(C(N)=O)C[C@@H](O)CN1C(=O)c1ccc(-c2ccc(OCC3CCN(CC4(C(F)(F)F)CCC4)CC3)cc2)c(F)c1` [Compound 1258, (2S,4R)-1-(2-fluoro-4′-((1-((1-(trifluoromethyl)cyclobutyl)methyl)piperidin-4-yl)methoxy)biphenylcarbonyl)-4-hydroxy-2-methylpyrrolidin-2-carboxamide], for which the EC50 came out at 1 nM. As to `CC(C)(F)CN1CCC(COc2ccc(-c3ccc(C(=O)N4CCC[C@@]4(C)C(N)=O)c(F)c3)cc2C#N)CC1` [Compound 1259, (S)-1-(3′-cyano-3-fluoro-4′-((1-(2-fluoro-2-methylpropyl)piperidin-4-yl)methoxy)biphenylcarbonyl)-2-methylpyrrolidin-2-carboxamide], the EC50 was 5 nM. For `NC(=O)C1CC(O)CCN1C(=O)c1ccc(-c2cnc(OCC3CCN(CC4(C(F)(F)F)CCC4)CC3)cn2)cc1F` (stereo not shown) [Compound 1262, 1-(2-fluoro-4-(5-((1-((1-(trifluoromethyl)cyclobutyl)methyl)piperidin-4-yl)methoxy)pyrazin-2-yl)benzoyl)-4-hydroxypiperidin-2-carboxamide], the EC50 came to 0.8 nM and the “activity” value is recorded as “excellent activity”. As to `C[C@@]1(C(N)=O)CCCN1C(=O)c1ccc(-c2cnc(OCC3CCN(CC4(C(F)(F)F)CCC4)CC3)cn2)cc1F` [Compound 1263, (S)-1-(2-fluoro-4-(5-((1-((1-(trifluoromethyl)cyclobutyl)methyl)piperidin-4-yl)methoxy)pyrazin-2-yl)benzoyl)-2-methylpyrrolidin-2-carboxamide], the EC50 was 0.04 nM and the “activity” value is given as “excellent activity”. For `NC(=O)[C@@H]1CCCN1C(=O)c1ccc(-c2ccc(OCC3CCN(CC(F)(F)C(F)(F)F)CC3)cn2)cc1F` [Compound 1264, (S)-1-(2-fluoro-4-(5-((1-(2,2,3,3,3-pentafluoropropyl)piperidin-4-yl)methoxy)pyridin-2-yl)benzoyl)pyrrolidin-2-carboxamide] the same measures were 0.09 nM and “excellent activity”. Turning to `NC(=O)[C@@H]1C[C@@H](O)CN1C(=O)c1ccc(-c2ccc(OCC3CCN(CC(F)(F)C(F)(F)F)CC3)cn2)cc1F` [Compound 1265, (2S,4R)-1-(2-fluoro-4-(5-((1-(2,2,3,3,3-pentafluoropropyl)piperidin-4-yl)methoxy)pyridin-2-yl)benzoyl)-4-hydroxypyrrolidin-2-carboxamide], the EC50 worked out at 0.05 nM and the “activity” value is “excellent activity”. Regarding `CC(C)(CN1CCC(COc2ccc(-c3ccc(C(=O)N4CCC[C@H]4C(N)=O)c(F)c3)nc2)CC1)C(F)(F)F` [Compound 1267, (S)-1-(2-fluoro-4-(5-((1-(3,3,3-trifluoro-2,2-dimethylpropyl)piperidin-4-yl)methoxy)pyridin-2-yl)benzoyl)pyrrolidin-2-carboxamide], the 50% effective concentration (EC50) is 0.09 nM and the “activity” value is “excellent activity”.

(Values after patent US9776987B2, “Amide derivatives for GPR119 agonist” (CHONG KUN DANG PHARMACEUTICAL CORP., priority 2013, dated 2017).)
